Assay results from patent US20060069132A1, “Azolecarboxamide herbicides” (priority 2004, published 2006).

Assays:
canarygrass = assay: Test C postemergence herbicide test; assay type: in vivo, Phalaris minor
Description: At the same time, plants selected from these crop and weed species and also winter barley (Hordeum vulgare L.), blackgrass (Alopecurus myosuroides Huds.), canarygrass (Phalaris minor Retz.), chickweed (Stellaria media (L.) Vill.), downy bromegrass (Bromus tectorum L.), green foxtail (Setaria viridis (L.) Beauv.), Italian ryegrass (Lolium multiflorum Lam.), wheat (Triticum aestivum L.), wild oat (Avenafatua L.) and windgrass (Apera spica-venti (L.) Beauv.) were treated with postemergence applications of some of the test chemicals formulated in the same manner. Plants ranged in height from 2 to 18 cm (1- to 4-leaf stage) for postemergence treatments. Plant species in the flooded paddy test consisted of rice (Oryza sativa), smallflower umbrella sedge (Cyperus difformis L.), ducksalad (Heteranthera limosa (Sw.) Willd.) and barnyardgrass (Echinochloa crus-galli (L.) Beauv.) grown to the 2-leaf stage for testing. Treated plants and controls were maintained in a greenhouse for 12 to 14 days, after which time all species were compared to controls and visually evaluated. Plant response ratings, summarized in Table C, are based on a scale of 0 to 100 where 0 is no effect and 100 is complete control. A dash (-) response means no test result.

common chickweed = assay: Test E pre-/postemergence herbicide test; assay type: in vivo, Stellaria media
Description: (§1) Seeds of plant species selected from bipinnate beggarticks (Bidens bipinnata L.), hairy beggarticks (Bidens radiata Thuill.), bermudagrass (Cynodon dactylon (L.) Pers.), Surinam grass (Urochloa decumbens (Staph) R. D. Webster, previously named Brachiaria decumbens Stapf), large crabgrass (Digitaria sanguinalis (L.) Scop.), green foxtail (Setaria viridis (L.) P. Beauv.), goosegrass (Eleusine indica (L.) Gaertn.), johnsongrass (Sorghum halepense (L.) Pers.), kochia (Kochia scoparia (L.) Schrad.), pitted morningglory (Ipomoea lacunosa L.), purple nutsedge (Cyperus rotundus L.), common ragweed (Ambrosia elatior L.), mustard (Brassica nigra (L.) W. D. J. Koch), guineagrass (Panicum maximum Jacq.), dallisgrass (Paspalum dilatatum Poir.), barnyardgrass (Echinochloa crus-galli (L). P. Beauv.), southern sandbur (Cenchrus echinatus L.), common sowthistle (Sonchus oleraceous L.), prickly sida (Sida spinosa L.), Italian ryegrass (Lolium multiflorum Lam.), common purslane (Portulaca oleracea L.), broadleaf signalgrass (Brachiaria platyphylla (Griseb.) Nash), common groundsel (Senecio vulgaris L.), common chickweed (Stellaria media (L.) Vill/Cyr.), tropical spiderwort (Commelina benghalensis L.), annual bluegrass (Poa annua L.), downy bromegrass (Bromus tectorum L.), itchgrass (Rottboellia cochinchinensis (L.) L.f.), quackgrass (Elytrigia repens (L.) Nevski), Canada horseweed (Erigeron Canadensis L.), field bindweed (Convolvulus arvensis L.), spotted spurge (Euphorbia maculata L.), common mallow (Malva sylvestris (=s silvestris) L.), and Russian thistle (Salsola kali L. ssp. Ruthenica (Iljin) Soo) were planted and treated preemergence with test chemicals formulated in a non-phytotoxic solvent mixture which included a surfactant.
(§2) At the same time, plants selected from these weed species were treated with postemergence applications of some of the test chemicals formulated in the same manner. Plants ranged in height from 2 to 18 cm (1- to 4-leaf stage) for postemergence treatments. Treated plants and controls were maintained in a greenhouse for 12 to 14 days, after which time all species were compared to controls and visually evaluated. Plant response ratings, summarized in Table E, are based on a scale of 0 to 100 where 0 is no effect and 100 is complete control. A dash (-) response means no test result.

common sowthistle = assay: Test E pre-/postemergence herbicide test; assay type: in vivo, Sonchus oleraceous
Description: as §1, §2

annual bluegrass = assay: Test E pre-/postemergence herbicide test; assay type: in vivo, Poa annua
Description: as §1, §2

Russian thistle = assay: Test E pre-/postemergence herbicide test; assay type: in vivo, Salsola kali; conditions: Preemergence
Description: as §1, §2

purple nutsedge = assay: Test E pre-/postemergence herbicide test; assay type: in vivo, Cyperus rotundus; conditions: Preemergence, scale 0 (no effect) to 100 (complete control)
Description: as §1, §2

pitted morningglory = assay: Test E pre-/postemergence herbicide test; assay type: in vivo, Ipomoea lacunosa
Description: as §1, §2

bermudagrass = assay: Test E pre-/postemergence herbicide test; assay type: in vivo, Cynodon dactylon
Description: as §1, §2

Surinam grass = assay: Test E pre-/postemergence herbicide test; assay type: in vivo, Urochloa decumbens
Description: as §1, §2

quackgrass = assay: Test E pre-/postemergence herbicide test; assay type: in vivo, Elytrigia repens
Description: as §1, §2

itchgrass = assay: Test E pre-/postemergence herbicide test; assay type: in vivo, Rottboellia cochinchinensis
Description: as §1, §2

prickly sida = assay: Test E pre-/postemergence herbicide test; assay type: in vivo, Sida spinosa; conditions: Preemergence, scale 0 (no effect) to 100 (complete control)
Description: as §1, §2

[1] = Postemergence, 250 g ai/ha, scale 0 to 100, 0 no effect, 100 complete control
[2] = postemergence, 125 g ai/ha, scale 0 to 100
[3] = postemergence, 31 g ai/ha, scale 0 to 100
[4] = postemergence, 62 g ai/ha, scale 0 to 100
[5] = Postemergence, 500 g ai/ha, scale 0 to 100, 0 no effect, 100 complete control
[6] = Preemergence, 62 g ai/ha, scale 0 to 100
[7] = Preemergence, 125 g ai/ha, scale 0 (no effect) to 100 (complete control)
[8] = Preemergence, 250 g ai/ha, scale 0 (no effect) to 100 (complete control)
[9] = Preemergence, 500 g ai/ha, scale 0 (no effect) to 100 (complete control)
[10] = Postemergence, 250 g ai/ha, scale 0 to 100
[11] = 500 g ai/ha, scale 0 (no effect) to 100 (complete control)
[12] = Preemergence, 125 g ai/ha, scale 0 to 100
[13] = Preemergence, 375 g ai/ha, scale 0 (no effect) to 100 (complete control)

Compound: CCn1nc(C(C)(C)C)cc1C(=O)Nc1cc(C(=S)N(C)C)ccn1 [Compound 334]
- Plant response rating, Canarygrass (canarygrass; [1]): 45
- Plant response rating, Canarygrass (canarygrass; [2]): 35
- Plant response rating, Canarygrass (canarygrass; [3]): 20
- Plant response rating, Canarygrass (canarygrass; [4]): 25

Compound: CCn1nc(C(C)(C)C)cc1C(=O)Nc1cccc(OC(F)F)c1 [Compound 332]
- Canarygrass plant response rating (canarygrass; Postemergence, 500 g ai/ha, scale 0 to 100): 70
- Plant response rating, Canarygrass (canarygrass; [1]): 60
- Plant response rating, Canarygrass (canarygrass; [2]): 45
- Plant response rating, Canarygrass (canarygrass; [4]): 35

Compound: C=CCNC(=O)c1cccc(NC(=O)c2nn(C(C)(C)C)nc2CC)c1 [Compound 414]
- Plant response rating, Canarygrass (canarygrass; [1]): 50
- Plant response rating, Canarygrass (canarygrass; [5]): 60
- Plant response rating, Canarygrass (canarygrass; [2]): 45
- Plant response rating, Canarygrass (canarygrass; [4]): 45

Compound: CCOC(=O)c1cccc(NC(=O)c2nn(C(C)(C)CC)nc2CC)c1 [Compound 375]
- Plant response rating, Canarygrass (canarygrass; [1]): 35
- Plant response rating, Canarygrass (canarygrass; [2]): 35
- Plant response rating, Canarygrass (canarygrass; [3]): 30
- Plant response rating, Canarygrass (canarygrass; [4]): 30

Compound: CCNC(=O)c1ccc(F)c(NC(=O)c2cc(C(C)(C)C)nn2CC)c1 [Compound 2, 3-(1,1-dimethylethyl)-1-ethyl-N-[5-[(ethylamino)carbonyl]-2-fluorophenyl]-1H-pyrazole-5-carboxamide]
- Plant response rating, Chickweed (common chickweed; [6]): 90
- Plant response rating, Chickweed (common chickweed; [7]): 90
- Plant response rating, Chickweed (common chickweed; [8]): 95
- Plant response rating, Chickweed (common chickweed; [9]): 95
- Plant response rating, Chickweed (common chickweed; [2]): 100
- Plant response rating, Sowthistle (common sowthistle; [10]): 95
- Plant response rating, Sowthistle (common sowthistle; [6]): 90
- Plant response rating, Sowthistle (common sowthistle; [7]): 95
- Plant response rating, Sowthistle (common sowthistle; [8]): 95
- Plant response rating, Sowthistle (common sowthistle; [9]): 95
- Plant response rating, Sowthistle (common sowthistle; [2]): 90
- Plant response rating, Sowthistle (common sowthistle; [4]): 90
- Plant response rating, Bluegrass (annual bluegrass; [10]): 100
- Plant response rating, Bluegrass (annual bluegrass; [6]): 95
- Plant response rating, Bluegrass (annual bluegrass; [7]): 100
- Plant response rating, Bluegrass (annual bluegrass; [8]): 100
- Plant response rating, Bluegrass (annual bluegrass; [9]): 100
- Plant response rating, Bluegrass (annual bluegrass; [2]): 98
- Plant response rating, Bluegrass (annual bluegrass; [4]): 90
- Plant response rating, Thistle (Russian thistle; 62 g ai/ha, scale 0 to 100): 50
- Plant response rating, Thistle (Russian thistle; 125 g ai/ha, scale 0 to 100): 60
- Plant response rating, Thistle (Russian thistle; 250 g ai/ha, scale 0 (no effect) to 100 (complete control)): 60
- Plant response rating, Thistle (Russian thistle; [11]): 80
- Plant response rating, Nutsedge, Purple (purple nutsedge; 500 g ai/ha): 95
- Plant response rating, Morningglory (pitted morningglory; [10]): 90
- Plant response rating, Morningglory (pitted morningglory; [6]): 30
- Plant response rating, Morningglory (pitted morningglory; [7]): 50
- Plant response rating, Morningglory (pitted morningglory; [8]): 60
- Plant response rating, Morningglory (pitted morningglory; [9]): 80
- Plant response rating, Morningglory (pitted morningglory; [2]): 60
- Plant response rating, Bermudagrass (bermudagrass; [10]): 90
- Plant response rating, Bermudagrass (bermudagrass; [6]): 90
- Plant response rating, Bermudagrass (bermudagrass; [7]): 95
- Plant response rating, Bermudagrass (bermudagrass; [8]): 100
- Plant response rating, Bermudagrass (bermudagrass; [9]): 100
- Plant response rating, Bermudagrass (bermudagrass; [2]): 85
- Plant response rating, Bermudagrass (bermudagrass; [4]): 20
- Plant response rating, Surinam Grass (Surinam grass; [10]): 100
- Plant response rating, Surinam Grass (Surinam grass; [6]): 60
- Plant response rating, Surinam Grass (Surinam grass; [12]): 80
- Plant response rating, Surinam Grass (Surinam grass; [8]): 80
- Plant response rating, Surinam Grass (Surinam grass; [9]): 90
- Plant response rating, Surinam Grass (Surinam grass; [2]): 90
- Plant response rating, Surinam Grass (Surinam grass; [4]): 75
- Plant response rating, Quackgrass (quackgrass; [10]): 95
- Plant response rating, Quackgrass (quackgrass; [6]): 30
- Plant response rating, Quackgrass (quackgrass; [7]): 60
- Plant response rating, Quackgrass (quackgrass; [8]): 70
- Plant response rating, Quackgrass (quackgrass; [9]): 80
- Plant response rating, Quackgrass (quackgrass; [2]): 90
- Plant response rating, Quackgrass (quackgrass; [4]): 70
- Plant response rating, Itchgrass (itchgrass; [10]): 90
- Plant response rating, Itchgrass (itchgrass; [6]): 60
- Plant response rating, Itchgrass (itchgrass; [7]): 70
- Plant response rating, Itchgrass (itchgrass; [8]): 90
- Plant response rating, Itchgrass (itchgrass; [9]): 95
- Plant response rating, Itchgrass (itchgrass; [2]): 90
- Plant response rating, Itchgrass (itchgrass; [4]): 70

Compound: CCNC(=O)c1ccc(F)c(NC(=O)c2c3c(nn2CC)C(C)(C)CC3)c1 [Compound 353]
- Plant response rating, Canarygrass (canarygrass; [1]): 10
- Plant response rating, Canarygrass (canarygrass; [5]): 20
- Plant response rating, Canarygrass (canarygrass; [2]): 10
- Plant response rating, Canarygrass (canarygrass; [4]): 0

Compound: CCc1nn(C(C)(C)C)cc1C(=O)Nc1cc(C(=O)N(C)C)ccn1 [Compound 293]
- Plant response rating, Sowthistle (common sowthistle; [12]): 75
- Plant response rating, Sowthistle (common sowthistle; [8]): 95
- Plant response rating, Sowthistle (common sowthistle; [13]): 95
- Plant response rating, Sowthistle (common sowthistle; [9]): 100
- Plant response rating, Bluegrass (annual bluegrass; [12]): 95
- Plant response rating, Bluegrass (annual bluegrass; [8]): 95
- Plant response rating, Bluegrass (annual bluegrass; [13]): 95
- Plant response rating, Bluegrass (annual bluegrass; [9]): 100
- Plant response rating, Thistle (Russian thistle; 125 g ai/ha, scale 0 to 100): 60
- Plant response rating, Thistle (Russian thistle; 375 g ai/ha, scale 0 (no effect) to 100 (complete control)): 95
- Plant response rating, Thistle (Russian thistle; [11]): 100
- Plant response rating, Prickly Sida (prickly sida; 250 g ai/ha): 80
- Plant response rating, Prickly Sida (prickly sida; 375 g ai/ha): 100
- Plant response rating, Prickly Sida (prickly sida; 500 g ai/ha): 100
- Plant response rating, Nutsedge, Purple (purple nutsedge; 250 g ai/ha): 40
- Plant response rating, Nutsedge, Purple (purple nutsedge; 375 g ai/ha): 50
- Plant response rating, Nutsedge, Purple (purple nutsedge; 500 g ai/ha): 60
- Plant response rating, Morningglory (pitted morningglory; [12]): 10
- Plant response rating, Morningglory (pitted morningglory; [8]): 40
- Plant response rating, Morningglory (pitted morningglory; [13]): 50
- Plant response rating, Morningglory (pitted morningglory; [9]): 90
- Plant response rating, Bermudagrass (bermudagrass; [12]): 90
- Plant response rating, Bermudagrass (bermudagrass; [8]): 95
- Plant response rating, Bermudagrass (bermudagrass; [13]): 95
- Plant response rating, Bermudagrass (bermudagrass; [9]): 95
- Plant response rating, Surinam Grass (Surinam grass; [12]): 80
- Plant response rating, Surinam Grass (Surinam grass; [13]): 100
- Plant response rating, Surinam Grass (Surinam grass; [9]): 100
- Plant response rating, Quackgrass (quackgrass; [12]): 70
- Plant response rating, Quackgrass (quackgrass; [8]): 80
- Plant response rating, Quackgrass (quackgrass; [13]): 95
- Plant response rating, Quackgrass (quackgrass; [9]): 95
- Plant response rating, Itchgrass (itchgrass; [12]): 10
- Plant response rating, Itchgrass (itchgrass; [8]): 90
- Plant response rating, Itchgrass (itchgrass; [13]): 100
- Plant response rating, Itchgrass (itchgrass; [9]): 100
